Assay: API elution study from the gel, buffer replaced daily, HPLC
Type: physicochemical
Conditions: 50 mg API in 4-Arm PEG-10K-SG/4-arm-PEG-10K-SAS/4-arm PEG-20K-NH2 gel; 37° C., 2 ml 7.4 buffer replaced daily
Protocol: A mold piece manufactured per example 5 is placed in a 2 ml buffered saline at 37° C. water bath. The entire 2 ml saline is removed daily from the sample and a new 2 ml saline is added. The process is repeated daily till the device is completely dissolved. The saline sample with drug is analyzed by HPLC, GC to establish the elution rate.
Example 22. Powder mixtures of 4-Arm PEG-10K-SG (12.5 mg) and 4-arm-PEG-10K-SAS (12.5±0.5 mg), 4-arm PEG-20K-NH 2 (25±0.5 mg) were placed in a 10 ml syringe. To this powder was added 50 mg corticosteroid TMC.

- amount eluted each day: about 54 micro grams
SMILES: C[C@]12C=CC(=O)C=C1CC[C@H]1[C@@H]3C[C@@H](O)[C@](O)(C(=O)CO)[C@@]3(C)C[C@H](O)[C@@]12F [TMC]

Reference: US20240315963A1, “COMPOSITIONS AND METHODS FOR EXTENDED DELIVERY OF API TO TREAT DISEASES OF THE EYE” (priority 2023, published 2024)
